Assay: Fuel solubility: miscibility of blends with commercial diesel
Format: physicochemical
Excerpt: Fuel solubility is a primary concern for diesel fuel applications. Not all highly polar oxygenates have good solubility in the current commercial diesel fuels.

SMILES: CCOCc1ccc(C=O)o1 [EMF, 5-(ethoxymethyl)furfural]
- Miscibility of blend with commercial diesel (5 vol % blend with commercial diesel): completely miscible
- Miscibility of blend with commercial diesel (25 vol % blend with commercial diesel): phase separation occurs
- Miscibility of blend with commercial diesel (40 vol % blend with commercial diesel): phase separation occurs

— patent US20100058650A1, “HYDROXYMETHYLFURFURAL ETHERS FROM SUGARS OR HMF AND MIXED ALCOHOLS” (FURANIX TECHNOLOGIES B.V., priority 2007, published 2010)
